From PubChem BioAssay (NCI) come the findings set out here.

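Compound exposure: 48 hours, 5 concentrations, 96-well plates. GI50 marks 50% less growth. TGI: total growth inhibition.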

What all share (assay): NCI tumour cell line growth inhibition, 48 h
The test system of assay [1] is SF-295 CNS.
The test system of assay [2] is SW-620 colon.
Assay [3] has as its system SK-MEL-28 melanoma.
The test system of assay [4] is HT29 colon.
In assay [5] the test system is NCI-H522 lung.
The test system of assay [6] is OVCAR-4 ovarian.
In assay [7] the test system is RPMI-8226 leukemia.
Assay [8] deals with HL-60(TB) leukemia.
The subject of assay [9] is K-562 leukemia.
Assay [10] relates to HCT-15 colon.

For `CC(=O)OCC1OC(O[C@@H]2C[C@H]3C(C)(C)[C@H](OC(C)=O)CC[C@]3(C)[C@H]3CC[C@@H]4[C@]5(CC[C@@]4(C)[C@@]32C)O[C@@H]([C@H](O)C(C)(C)O)C[C@@H]5C)C(O)C(O)C1O` (stereo partly drawn), the GI50 is 6.43 µM in [1]; 10.4 µM in assay [2]; 10.2 µM in [3]; 1.83 µM in assay [4]; 7.1 µM in assay [5]; 3.35 µM in [6]. For the same compound, the GI50 was 3.37 µM in assay [7], 2.93 µM in assay [8], 4.51 µM in assay [9] and 2.19 µM in assay [10]. The TGI in [1] was determined as 19.2 µM; in assay [2], 22.9 µM; in [3] it was 24 µM; in assay [4] it was 4.28 µM; in [5], 21.2 µM; in assay [6] it was 16.4 µM. The TGI was determined as 19 µM in assay [7], 10.2 µM in [8], 25.1 µM in [9] and 5.94 µM in [10].
For `O=C1CCC(c2ccccc2)(c2ccccc2)CC1`, the TGI in assay [1], in assay [2], in assay [3], in assay [4], in assay [5] and in assay [6] was over 100 µM throughout. The TGI in assay [7] is over 100 µM; in [8] it was 81 µM; in [9] it was over 100 µM; in assay [10] it was over 100 µM.
On to `CCn1c(-c2cc3ccccc3cc2OC(=O)c2ccccc2)n[nH]c1=S`, for which the GI50 is 27 µM in assay [1]; over 50 µM in [2]; over 50 µM in assay [3]; 42.4 µM in assay [4]; 11 µM in assay [5]; over 50 µM in assay [6]. The GI50 is 9.96 µM in assay [7], 32.7 µM in assay [8], 22.5 µM in assay [9] and over 50 µM in assay [10]. The TGI in [1] was over 50 µM; in assay [2], over 50 µM; in [3], over 50 µM; in assay [4], over 50 µM; in assay [5], 45.4 µM; in assay [6], over 50 µM. Further, the TGI in [7] was 23.8 µM; in [8] it was over 50 µM; in [9], over 50 µM; in assay [10], over 50 µM.
`COc1cc(C(=O)c2c(-c3ccccc3)oc3ccccc23)cc(OC)c1O`: the GI50 in [1] was 2.41 µM; in assay [2] it was 0.96 µM; in [3] it was 10.4 µM; in assay [4], 9.78 µM; in assay [5] it was 0.773 µM; in [6], 5.46 µM. The GI50 in [7] was 1.83 µM; in assay [8] it was 0.565 µM; in assay [9], 0.4 µM; in assay [10] it was 0.667 µM. Also, the TGI in [1] is 6.94 µM; in [2] it was 26.9 µM; in assay [3] it was 25.1 µM; in assay [4], over 100 µM; in assay [5], 19.6 µM; in assay [6] it was 24.4 µM. For the same compound, the TGI in assay [7] was determined as 12.9 µM; in assay [8], 3.85 µM; in assay [9] it was 44.5 µM; in assay [10] it was 15.5 µM.
`O=C(Nc1ccc(-c2nc3ccc(NC(=O)c4ccc(Cl)cc4)cc3[nH]2)cc1)c1ccc(Cl)cc1`: the GI50 in assay [1] was 0.23 µM; in assay [2], 2.35 µM; in assay [3] it was 2.78 µM; in [4] it was 2.11 µM; in assay [5], 2.95 µM; in assay [6] it was 1.76 µM. Moreover, the GI50 in assay [7] is 5.77 µM; in assay [8], 4.12 µM; in [9] it was 0.487 µM; in assay [10] it was 10.6 µM. Besides, the TGI in assay [1] was found to be 8.77 µM; in [2], 8.46 µM; in [3], 14.9 µM; in [4] it was 6.89 µM; in [5], 9.36 µM; in assay [6], 3.47 µM. Also, the TGI in assay [7] was found to be 23 µM; in assay [8], 16.2 µM; in assay [9] it was 4.57 µM; in assay [10], 27.4 µM.
On to `NC(=NC1C2CC3CC(C2)CC1C3)Nc1ccc(I)cc1` (stereo not drawn), for which the GI50 in [1] was 2.51 µM; in assay [2], 2.64 µM; in assay [3] it was 2.53 µM; in assay [4], 3.1 µM; in assay [5] it was 2.63 µM; in assay [6] it was 3.26 µM. Besides, the GI50 is 2.49 µM in assay [7], 6.43 µM in assay [8], 3.29 µM in [9] and 2.88 µM in assay [10]. In addition, the TGI in assay [1] was 6.75 µM; in assay [2], 11.6 µM; in assay [3], 7.58 µM; in assay [4] it was 10.8 µM; in [5], 11.2 µM; in assay [6] it was 14 µM. The TGI in [7] was found to be 5.72 µM; in assay [8], 27.2 µM; in assay [9], 15.7 µM; in [10], 10.2 µM.
With `CC1=CC(=O)c2[nH]c3ccccc3c2C1=O`, the GI50 is 4.32 µM in assay [1]; 3.94 µM in assay [2]; 4.47 µM in [3]; 17.6 µM in [4]; 3.82 µM in [5]; 4.06 µM in assay [8]. The GI50 in [9] is 5.56 µM; in assay [10] it was 4.2 µM. Moreover, the TGI in assay [1] was 7.93 µM; in [2], 7.65 µM; in assay [3] it was 7.98 µM; in assay [4] it was over 25 µM; in assay [5] it was 7.24 µM; in assay [6] it was 7.58 µM. Besides, the TGI in assay [7] was found to be 14.7 µM; in assay [8], 9.85 µM; in assay [9], 14 µM; in assay [10] it was 7.61 µM.
`COc1ccc(-c2nc(N)nc(-c3cc(C)ccc3O)c2Cl)cc1`: the TGI was over 100 µM in [1]; over 100 µM in assay [2]; over 100 µM in assay [3]; over 100 µM in assay [4]; over 100 µM in assay [5]; 53.3 µM in assay [6]. Besides, the TGI in [7], in [8], in assay [9] and in assay [10] was over 100 µM throughout.
